From patent publication EP1232754A2, “Use of cationic helix peptides for treatment of sepsis and for detection and removal of endotoxins” (Commonwealth Biotechnologies, Inc., priority 2001, dated 2002) come the findings set out here.

Test [1] is described as follows: Neutralization of endotoxin added to plasma or buffer, kinetic chromogenic Limulus Amebocyte Lysate endotoxin assay. In kind it is biochemical. The text has this:
The presence of endotoxin may routinely be measured using, for example, a kinetic chromogenic method. The assay involves a complete set of enzyme reactions which are described in detail in the following publications, each of which is hereby incorporated by reference. Endosafe Limulus Amebocyte Lysate Endochrome-K™ package insert. (Endosafe, Charleston, SC) Pearson III, F., Pyrogens/Endotoxins, LAL Testing and Depyrogenation, 1985. Watson, S., Levin, J., and Novitsky, T., Progress in Clinical and Biological Research, Endotoxins and their detection with the Limulus Amebocyte Lysate Test, 93.
In the course of the endotoxin assay, a calibration curve is prepared which is a plot of logarithm of the time of the kinetic endpoint of a chromogenic reaction versus the logarithm of known concentrations of endotoxin.
Thus, if endotoxin is added to aqueous buffer solutions or to plasma the amount of endotoxin present can be assayed by reference to the calibration curve. Similarly, if plasma, plasma fractions, patient samples or any test solution contains an endogenous level of endotoxin, the level can also be determined by reference to the calibration curve.
Endotoxin was purposely added to plasma to a final concentration of 10 ng/mL and increasing concentrations of the compounds Arg Helix #2 (a monomeric cationic helix peptide), Bis Arg Helix #2 (which contains 2 copies of Arg Helix #2), Tris Arg Helix #3 (which contains 3 copies of Arg Helix #3), Tetra Arg Helix #3 (4 copies of Arg Helix #3) or Tris Arg Helix #3 (constrained) (3 copies of Arg Helix #3 constrained by design to present a "binding groove" within the molecule) were added to these same samples (Table 1).

Test [2] in a line: Titration circular dichroism spectroscopy of endotoxin binding. Particulars: CD titration. On the procedure: Circular dichroism (CD) spectroscopy can be used to determine the fractional percent of secondary structural elements present in a peptide preparation. Titration CD spectroscopy can be used to assess the effect of binding a ligand on the reorganization of peptide structure (You, Scarsdale, and Harris 1991; Sobel, Soler, et al 1992; Soler, Sobel and Harris 1992; Tyler-Cross, Sobel et al 1993; Tyler-Cross, Sobel, Marques et al, 1994). Thus, incremental amounts of endotoxin were added to a solution of TR3 CONST and the effect of binding endotoxin by the peptide was assessed by CD spectroscopy.
By CD, Tris Arg Helix #3 (constrained) is 18% helix in solution (20°C) but complexation with endotoxin increases the helix character of the peptide to nearly 50% (Figure 3). Note that binding of endotoxin is dose dependent and saturable.
Background: CD spectra are sensitive to the conformation of chiral molecules.

The test system of test [3] is E. coli (strain JM 109). Kind of test: Neutralization of endotoxin presented by intact E. coli, endotoxin chromogenic assay. In kind it is biochemical, Escherichia coli. Particulars: TR3 CONST 200 µg/mL; for % neutralization / Endotoxin Equivalents: 10 min, 37°C. On the procedure: LPS is presented on the surface of gram-negative bacteria, such as Escherichia coli (E. coli). It was thus of interest to determine whether TR3 CONST would bind LPS present on whole bacterial cells. The assay method used was the endotoxin chromogenic assay as described above.
Thus, increasing amounts of E. coli (strain JM 109) were incubated (10 min; 37°C) in the presence or absence of 200 µg/mL TR3 CONST in 10 mM phosphate-150 mM NaCI-3 mM KCI buffer, pH 7.4. An aliquot of the incubation mixture was then assayed for residual endotoxin activity as previously described.
Equivalent endotoxin concentrations are deduced by reference to the endotoxin calibration curve.

For test [4], the system named is E. coli (strain JM 109). Described as above. In kind it is biochemical, Escherichia coli. Particulars: 3e06 or 3e07 E. coli per mL; increasing peptide concentrations; within 10 min at 37°C (Figure 5).

Bridges are numbered along the chain shown (N, C = ends). Roman numbers before positions name the chains, in order. [ ]: non-standard residue; d: D form. Dap = NC[C@H](N)C(=O)O

Consider “I: Ac-AEARARRAAARAARRAKKP[Dap]E-NH2 / II: Ac-AEARARRAAARAARRA / III: Ac-AEARARRAAARAARRA (amide I:18-II:C, I:20-III:C) [Tris Arg Helix #3 (constrained)]”, for which, in test [1] (1 mg/ml peptide, water or plasma solution), the endotoxin quantitatively bound is listed as > 1 µg/mL. Besides, the “Percent Binding of” value in test [1] (Endotoxin 5, peptide 2.5 (ng/mL and mg/mL)) is on record as 100%; in test [1] (Endotoxin 50, peptide 2.5 (ng/mL and mg/mL)), 100%; in test [1] (Endotoxin 500, peptide 1.0 (ng/mL and mg/mL)), ~100%. For the same substance, the “neutralization of endotoxin added to aqueous samples” value in test [1] (aqueous samples, compared with plasma) is given as “same results were obtained”. For the same substance, in test [2], the Kd (commonly the concentration at which binding is half-saturated) stood at 870 nM. Moreover, the “N, stoichiometry of binding (endotoxin:peptide)” value in test [2] is listed as 0.91. For the same substance, the “% neutralization” value in the test on E. coli (strain JM 109) [3] (E. coli 3e03 organisms/mL) came to 100%; in the test with E. coli (strain JM 109) [3] (E. coli 3e04 organisms/mL) it was 100%; with E. coli (strain JM 109) [3] (E. coli 3e05 organisms/mL) it was 100%; in the test on E. coli (strain JM 109) [3] (E. coli 3e06 organisms/mL), 87.9%; in the test with E. coli (strain JM 109) [3] (E. coli 3e07 organisms/mL) it was 48.8%. For the same substance, the “Endotoxin Equivalents” value in the test on E. coli (strain JM 109) [3] (E. coli 3e03 organisms/mL) came to 0.00 ng/mL; in the test on E. coli (strain JM 109) [3] (E. coli 3e04 organisms/mL), 0.00 ng/mL; in the test with E. coli (strain JM 109) [3] (E. coli 3e05 organisms/mL), 0.00 ng/mL; with E. coli (strain JM 109) [3] (E. coli 3e06 organisms/mL), 6.97 ng/mL; in the test with E. coli (strain JM 109) [3] (E. coli 3e07 organisms/mL) it was 94.3 ng/mL; with E. coli (strain JM 109) [3] (E. coli 3e08 organisms/mL), 440.0 ng/mL. For the same substance, the “neutralization of the endotoxin activity” value in the test on E. coli (strain JM 109) [3] (E. coli up to 3e06 organisms/mL) is given as “complete neutralization”. In addition, the “neutralization of endotoxin as presented on the surface of E. coli” value in the test on E. coli (strain JM 109) [4] was “dose dependent neutralization”.
